These results are taken from patent publication US11434250B2, “Pyrazolo[1,5a]pyrimidine derivatives as IRAK4 modulators” (Genentech, Inc., priority 2017, dated 2022).

A short description of one data set: Kinetic solubility assay. The class given is physicochemical. Particulars: for solubility kinetic at 24 h: PBS buffer with 2% DMSO, aqueous buffer, kinetic from dmso stock, PBS buffer pH 7.4, 2% DMSO, 24 hours shaking at room temperature, UHPLC-CLND; for Fold improvement in kinetic solubility: example compound versus its matched pair phenyl compound. As for the experimental part:
The kinetic solubility assay started with compound DMSO stock solutions. This assay used Millipore Multiscreen 96-well filter plates for the 24 hour equilibration shaking. Samples were prepared by adding 4 μL of the 10 mM compound DMSO stock solutions into 196 μL of PBS buffer pH 7.4 in the 96-well filter plates, yielding a compound concentration of 200 μM and 2% DMSO. The filter plate was sealed with aluminum sealing film and shaken at room temperature for 24 hours at 1000 rpm. When shaking has completed, the solutions were filtered into a clean 96-well plate utilizing a vacuum manifold. After filtration, some precipitate is often observed at the bottom of the filtration plate wells. Most of the precipitates appear to be crystalline under a polarizing light microscope. The filtrate samples were diluted by a factor of 2 using PBS pH7.4 buffer and then transferred to a 384-well plate for analysis by UHPLC-CLND (CLND: Chemiluminescence nitrogen detector). 5 μL of each sample was injected twice into the UHPLC-CLND for two repeat analysis.
Samples were detected and analyzed using UV 254 nm and CLND. UV 254 nm is used primarily to confirm the sample purity but in rare cases, is also used to quantify the concentration of compounds with no nitrogens, where additional work is done to create a compound specific calibration curve. The identification of CLND target peaks of each compound were confirmed by LCMS. Sample quantification was accomplished by CLND peak intensity, the calibration curve, and the number of nitrogen contained in the compound. One calibration curve of caffeine was used for solubility quantitative determination. A fresh calibration curve was created for every batch. The number of nitrogens in a compound used for this quantification was corrected for the actual configuration of the nitrogen in the compound.

For a further data set, the target named is human IRAK4 (Homo sapiens (Human), UniProt Q9NWZ3). Briefly: IRAK4 enzymatic assay (Transcreener fluorescence polarization, ADP detection). Type of data set: biochemical. Particulars: recombinant full-length IRAK4; 125 uM ATP; 90 min. As for the experimental part: Compounds were assayed for inhibition of human IRAK4 and IRAK1 catalytic activity using recombinant enzyme produced from insect cells. Full-length IRAK4 protein, carrying an N-terminal His6-Tag, was obtained from Life Technologies (Carlsbad, Calif., USA). The IRAK1 construct was produced internally and was comprised of IRAK1 residues Arg194 to Ser712, preceded by an NH2-terminal His6 tag and the coding sequence for glutathione-S-transferase.
Chain of human IRAK4 (Q9NWZ3 whole entry, the tested form may be a part): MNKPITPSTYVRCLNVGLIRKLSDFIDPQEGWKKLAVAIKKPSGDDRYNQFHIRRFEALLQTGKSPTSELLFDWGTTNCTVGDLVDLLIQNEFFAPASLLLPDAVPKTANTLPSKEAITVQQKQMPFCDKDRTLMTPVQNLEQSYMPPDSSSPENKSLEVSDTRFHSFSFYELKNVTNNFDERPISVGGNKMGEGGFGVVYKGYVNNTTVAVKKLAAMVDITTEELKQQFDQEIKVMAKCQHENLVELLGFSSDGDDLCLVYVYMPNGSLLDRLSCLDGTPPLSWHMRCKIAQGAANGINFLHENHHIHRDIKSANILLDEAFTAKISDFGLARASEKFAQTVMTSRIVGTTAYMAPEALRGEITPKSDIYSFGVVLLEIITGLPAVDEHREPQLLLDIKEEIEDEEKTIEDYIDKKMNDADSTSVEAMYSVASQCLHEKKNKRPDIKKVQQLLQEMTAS
Kinase activities were assayed using the Transcreener-Fluorecescence polarization platform (BelBrook Labs, Madison, Wis., USA) that measures amounts of the reaction product, ADP. […] Final IRAK4 assay conditions were 1.25 nM IRAK4; 125 uM ATP; 10 uM MgC2; 125 uM peptide in reaction buffer (25 mM HEPES (pH7.4); 2 mM Dithiothreitol; 0.015% Brij-35; and 0.5% dimethyl sulfoxide. The IRAK1 activity was optimized similarly, yielding final assay conditions of […] IRAK1; 62.5 uM ATP; 5 uM MgCl2, and 62.5 uM IRAK1 peptide in reaction buffer for 60 min.
Assays of compounds for kinase inhibition were performed using inhibitors serially-diluted in dimethyl sulfoxide, which was accomplished with a LabCyte Echo 555 liquid dispenser. 384 well assay plates spotted with compound received 4 ul of a 2× substrate (ATP+peptide) mix in reaction buffer, followed by 4 ul of 2× enzyme diluted in reaction buffer. Reactions were halted at 60 (IRAK1) or 90 (IRAK4) min by addition of 6 ul of detection buffer, containing EDTA ([…] final concentration), 0.95 ug of the ADP-binding antibody ADP2, ADP tracer (3 nM final concentration), and […] HEPES. Following a 1 hr incubation, fluorescence polarization of the ADP2-antibody::TRACER complex was read on a Tecan M1000 plate reader using a 635/20 excitation filter in combination with a 670/20 emission filter. Delta milli-P values were analyzed using Genedata software to fit dose-response curves and compute compound Ki values, using ATP Km values of 642 um and 83.2 uM for IRAK4 and IRAK1, respectively. Table 3 provides IRAK4 Ki values for representative compounds of the present invention.

A short description of data set [1]: Plasma protein binding using rapid equilibrium dialysis (RED). Type of data set: in vitro ADME. Particulars: pH 7.4, human plasma, 37° C., read-out: Human PPB (converted). As for the experimental part: Plasma protein binding was measured in duplicate using rapid equilibrium dialysis (RED) device ((Thermo Scientific Pierce) in a 96-well format. Briefly, 10.0 μL drug or control compounds (0.5 mM in DMSO) was mixed with 1000 μL plasma (pH adjusted to 7.4) from various species (BioreclamationIVT). Aliquots of 300 μL drug/plasma mixture were placed into the donor side chamber of a single-use RED plate, and 500 μL aliquots of PBS buffer were placed into the adjacent chamber as the receiver side. The plate was incubated on an orbital shaker at 400 rpm, at 37° C. for 4 hours. After completion of incubation, 50 μL aliquots from the PBS buffer side were mixed with 5 μL of blank plasma matrix, and 5 μL from the donor side (plasma) were mixed with 50 μL blank PBS buffer. All samples were then crashed with 200 μL acetonitrile (containing internal standard) to precipitate plasma proteins. The samples were centrifuged at 3750 rpm for 10 min to pellet the proteins. The supernatants were carefully transferred to a fresh 96-well plate, and diluted with an equivalent volume of water. The samples were then analyzed by LC-MS/MS (ABI 4000, ABI Sciex). Data acquisition and processing was performed with Analyst 1.6.1 and Multiquant 2.1. The percent of protein binding and fraction unbound (fu) in matrix was calculated from taking the ratio of responses (peak areas) on the receiver side (buffer) to those on the donor side (plasma). The ratios were normalized to the internal standard.

pKi: −log10 of the molar value. ≈ marks a conversion by molar mass, not a printed value.

As to `C[C@@]1(O)COc2nc(N3CCN(CC(F)F)CC3)c(NC(=O)c3cnn4cccnc34)cc2C1` (stereo in doubt) [Example 19, N-[rac-(3S)-7-[4-(2,2-difluoroethyl)piperazin-l-yl]-3-hydroxy-3-methyl-2,4-dihydropyrano[2,3-b]pyridin-6-yl]pyrazolo[1,5-a[pyrimidine-3-carboxamide], in “Kinetic solubility assay”, the kinetic solubility at 24 h was found to be 177 µM (≈ 83.8 µg/mL) and the “Fold improvement in kinetic solubility” value amounted to 31.6. At human IRAK4, the negative logarithm of the Ki (pKi) was 7.51.
As to `C[C@@]1(CO)Cc2cc(NC(=O)c3cnn4cccnc34)c(N3CCN(CC(F)F)CC3)nc2O1` (stereo in doubt) [Example 20, N-[rac-(2S)-6-[4-(2,2-difluoroethyl)piperazin-l-yl]-2-(hydroxymethyl)-2-methyl-3H-furo[2,3-b]pyridin-5-yl]pyrazolo[1,5-a]pyrimidine-3-carboxamide], the pKi at human IRAK4 was 8.04.
Regarding `CC(C)(O)[C@@]1(C)Cc2cc(NC(=O)c3cnn4cccnc34)c(N3CCOCC3)nc2O1` (single isomer, unassigned) [Example 14], at human IRAK4, the pKi was 7.32.
Regarding `CC1(CO)Cc2cc(NC(=O)c3cnn4cccnc34)c(N3CCOCC3)nc2O1` (stereo in doubt) [Example 10, (S)—N-(2-(Hydroxymethyl)-2-methyl-6-morpholino-2,3-dihydrofuro[2,3-b]pyridin-5-yl)pyrazolo[1,5-a]pyrimidine-3-carboxamide], in the data set “Kinetic solubility assay”, the kinetic solubility at 24 h came to 159 µM (≈ 65.3 µg/mL) and the “Fold improvement in kinetic solubility” value is reported as 15.9. Moreover, the pKi at human IRAK4 is 7.06.
As for `CC1(C)Cc2cc(NC(=O)c3cnn4cccnc34)c(N3CCOCC3)nc2O1` [Example 1, N-(2,2-dimethyl-6-morpholino-2,3-dihydrofuro[2,3-b]pyridin-5-yl)pyrazolo[1,5-a]pyrimidine-3-carboxamide], in “Kinetic solubility assay”, the kinetic solubility at 24 h was 166 µM (≈ 65.5 µg/mL) and the “Fold improvement in kinetic solubility” value came out at 166.0. The pKi on human IRAK4 was 7.41. In addition, the fraction unbound at 4 h, 5 µM in data set [1] is 0.143.
Take `Cc1cnc2c(C(=O)Nc3cc4c(nc3N3CCN(CC(N)=O)CC3)O[C@](C)(CO)C4)cnn2c1` (single isomer, unassigned) [Example 15]: on human IRAK4, the pKi is 8.18.
`C[C@@]1(CO)Cc2cc(NC(=O)c3cnn4cccnc34)c(N3CCOCC3)nc2O1` (single isomer, unassigned) [Example 11] showed a solubility (kinetic) at 24 h in the data set “Kinetic solubility assay” of 137 µM (≈ 56.2 µg/mL). Besides, at human IRAK4, the pKi is 7.35.
`Cc1cnc2c(C(=O)Nc3cc4c(nc3N3CCC(CO)CC3)OC(C)(C)C4)cnn2c1` [Example 3, N-(6-(4-(Hydroxymethyl)piperidin-1-yl)-2,2-dimethyl-2,3-dihydrofuro[2,3-b]pyridin-5-yl)-6-methylpyrazolo[1,5-a]pyrimidine-3-carboxamide]: in “Kinetic solubility assay”, the kinetic solubility at 24 h came out at 7.5 µM (≈ 3.27 µg/mL) and the “Fold improvement in kinetic solubility” value came to 7.5. Besides, the negative-log Ki (pKi) on human IRAK4 is 8.39.
In the case of `CC1(CO)Cc2cc(NC(=O)c3cnn4cccnc34)c(N3CCOCC3)nc2O1` (stereo in doubt) [Example 11, (R)—N-(2-(hydroxymethyl)-2-methyl-6-morpholino-2,3-dihydrofuro[2,3-b]pyridin-5-yl)pyrazolo[1,5-a]pyrimidine-3-carboxamide], the “Fold improvement in kinetic solubility” value in the data set “Kinetic solubility assay” came out at 13.7.
Turning to `Cc1cnc2c(C(=O)Nc3cc4c(nc3N3CCN(CC(N)=O)CC3)O[C@@](C)(CO)C4)cnn2c1` (single isomer, unassigned) [Example 16], the pKi on human IRAK4 is 8.26.
Take `CN1Cc2cc(NC(=O)c3cnn4cccnc34)c(N3CCOCC3)nc2C1=O` [Example 12, N-(6-Methyl-2-morpholino-7-oxo-6,7-dihydro-5H-pyrrolo[3,4-b]pyridin-3-yl)pyrazolo[1,5-a]pyrimidine-3-carboxamide]: in “Kinetic solubility assay”, the kinetic solubility at 24 h was determined as 39 µM (≈ 15.3 µg/mL) and the “Fold improvement in kinetic solubility” value was 5.7. The negative-log Ki (pKi) at human IRAK4 was 6.27.
On to `CC1(C)Cc2cc(NC(=O)c3cnn4cccnc34)c(N3CCN(CCO)CC3)nc2O1` [Example 4, N-(6-(4-(2-Hydroxyethyl)piperazin-1-yl)-2,2-dimethyl-2,3-dihydrofuro[2,3-b]pyridin-5-yl)pyrazolo[1,5-a]pyrimidine-3-carboxamide], for which the pKi on human IRAK4 was 7.48.
Consider `CC1(C)Cc2cc(NC(=O)c3cnn4cccnc34)c(N3CCOC[C@H]3CO)nc2O1` (single isomer, unassigned) [Example 7], for which, on human IRAK4, the negative-log Ki (pKi) was 5.62.
Same read-out and setting: the same measure for `CC1(C)Cc2cc(NC(=O)c3cnn4cccnc34)c(N3CCOC[C@@H]3CO)nc2O1` (single isomer, unassigned) [Example 8]: 6.09.
Take `CC1(C)Cc2cc(NC(=O)c3cnn4cccnc34)c(N3CCC(F)(CO)CC3)nc2O1` [Example 5, N-[6-[4-Fluoro-4-(hydroxymethyl)-1-piperidyl]-2,2-dimethyl-3H-furo[2,3-b]pyridin-5-yl]pyrazolo[1,5-a]pyrimidine-3-carboxamide]: in the data set “Kinetic solubility assay”, the solubility (kinetic) at 24 h is 112 µM (≈ 49.3 µg/mL) and the “Fold improvement in kinetic solubility” value is 43.1. The pKi at human IRAK4 is 8.25.
On to `C[C@]1(O)COc2nc(N3CCN(CC(F)F)CC3)c(NC(=O)c3cnn4cccnc34)cc2C1` (stereo in doubt) [Example 18, N-[rac-(3R)-7-[4-(2,2-difluoroethyl)piperazin-l-yl]-3-hydroxy-3-methyl-2,4-dihydropyrano[2,3-b]pyridin-6-yl]pyrazolo[1,5-a]pyrimidine-3-carboxamide], for which, in “Kinetic solubility assay”, the solubility (kinetic) at 24 h was 167 µM (≈ 79.1 µg/mL) and the “Fold improvement in kinetic solubility” value worked out at 12.8. For the same compound, the pKi at human IRAK4 is 6.68.
As for `CC(C)(O)[C@]1(C)Cc2cc(NC(=O)c3cnn4cccnc34)c(N3CCOCC3)nc2O1` (single isomer, unassigned) [Example 13], on human IRAK4, the pKi is 7.04.
Regarding `CC1(C)Cc2cc(NC(=O)c3cnn4cccnc34)c(N3CCC(CO)CC3)nc2O1` [Example 2, N-(6-(4-(Hydroxymethyl)piperidin-1-yl)-2,2-dimethyl-2,3-dihydrofuro[2,3-b]pyridin-5-yl)pyrazolo[1,5-a]pyrimidine-3-carboxamide], the pKi at human IRAK4 is 8.38. Further, the fraction unbound at 4 h, 5 µM in data set [1] is 0.074.
As for `CC1(C)Cc2cc(NC(=O)c3cnn4cccnc34)c(OCC3CC3)nc2O1` [Example 17, N-[6-(cyclopropylmethoxy)-2,2-dimethyl-3H-furo[2,3-b]pyridin-5-yl]pyrazolo[1,5-a]pyrimidine-3-carboxamide], the pKi on human IRAK4 is 8.19.
